Test results published in publication PMC6212553, “Baicalein Enhances the Oral Bioavailability and Hepatoprotective Effects of Silybin Through the Inhibition of Efflux Transporters BCRP and MRP2” (Frontiers in Pharmacology, 2018).
Like-named read-outs stand apart in the source and are kept apart here.

Assay: Pharmacokinetic study in rats after oral administration
Format: in vivo, SD rats
Details: silybin 50 mg/kg oral; for CL/F / MRT last / Tmax / half-life: male, SD, rat, plasma, po, 50 mg/kg; for CL/F: read-out: CLz/F, free silybin (converted); for MRT last: read-out: MRT(0-t), free silybin; for Tmax: read-out: Tmax, free silybin; for half-life: read-out: t1/2z, free silybin (converted)
Experimental: A previously established liquid chromatography-mass spectrometry (LC-MS) method with slight modifications was used to determine the concentrations of all glucuronide and sulfate conjugates of silybin and free silybin in bio-samples (plasma, cell and media) ([Wen et al., 2008]). In brief, a 10 μl aliquot of each sample was enzymatically hydrolyzed with […] (8000 U/ml) and sulfatase (80 U/ml), and the reaction was terminated by adding 40 μl ice-cold acetonitrile containing glacial acetic acid (1%) and internal standard NG (25 ng/ml). After centrifugation at 13,500 rpm for 15 min at 4°C, the supernatant was dried in ice bath by blowing nitrogen. Later, the residues were reconstituted with 60 μl of 30% methanol in water containing 1% ascorbic acid, and an aliquot of 10 μl of final solution after centrifugation was analyzed by LC-MS/MS. In parallel, a 10 μl aliquot of each sample without enzymes was treated with 40 μl ice-cold acetonitrile containing glacial acetic acid (1%) and NG (25 ng/ml) to determine the concentration of free silybin. Therefore, the concentration of total glucuronides and sulfates was estimated based on the difference between the amount of total silybin (after incubation with both glucuronidase and sulfatase) and free silybin (without enzymatic incubation). The method was validated in terms of specificity, recovery, linearity, sensitivity (LLOQ), matrix effect, accuracy, precision, and stability based on the USA Food and Drug Administration (FDA) bioanalytical method validation guidance. The quantitative linear range for silybin A and B was 5 to 12500 ng/ml.
The analysis for the determination of the concentration of silybin and its glucuronides and sulfates was performed on an Agilent HP 1100 LC-MS system (Agilent, CA, United States) with Waters ACQUITY UPLC® BEH C18 Column (1.7 μm, 2.1 × 50 mm, Waters Corp., Ireland) protected by a C18 Security Guard cartridge (4 × 2.0 mm i.d., Phenomenex, Torrance, CA, United States). Silybin A and B were well separated using optimized gradient elution with 0.1% formic acid in water (mobile phase A) and methanol (mobile phase B) at a flow rate of 0.4 ml/min within 10 min at room temperature (22°C). The gradient elution was performed as follows (time: mobile phase B percentage): 0 min: 25%, 6 min: 40%, 6.5 min: 25%.
Mass spectrometry parameters: capillary voltage, -4000 V; drying gas, 9 L/min; drying gas temperature, 325°C; nebulizer pressure, 40 psi; fragment voltage, 35 V; dwell time, 200 ms; scan mode, selective ion monitoring (SIM) with [M-H]^- for silybin (m/z 481), mono-glucuronide (m/z 657), and NG (m/z 271). The LC-MS data were collected by Agilent ChemStation Software.
Male SD rats, weighting 200–250 g, were purchased from the Guangdong Medical Laboratory Animal Center. They were housed as six rats per cage and in a temperature- (21°C) and humidity-controlled (70%) room with a 12 h light/dark cycle with standard diet and water. All animals were allowed to acclimate to the housing conditions for 7 days prior to experimentation. Experimental procedures were approved by the Committee of Guangdong Provincial Hospital of Traditional Chinese Medicine (No # 2017044).
The SD rats were randomly divided into three groups with six rats per group and were given oral administration as follows: (1) silybin at a dosage of 50 mg/kg bodyweight, (2) silybin and baicalein at a dosage of 50 mg/kg each, and (3) baicalein at a dosage of 50 mg/kg body weight. Before the experiment, rats were pre-fasted for 24 h with water ad libitum and were maintained at a temperature of 21°C with 70% relative humidity and a 12 h light/dark cycle. Blood samples were collected via the tail vein (about 0.1 ml) at time intervals of 0, 15, 30, 45, 60, 90, 120, 240, 360, 480, and 720 min after oral administration with a temporary cannula ([Parasuraman et al., 2010]), and the samples were transferred into heparinized micro-centrifuge tubes. […]

[1] = with baicalein 50 mg/kg, listed as SBA
[2] = without baicalein, listed as SBA
[3] = with baicalein 50 mg/kg, listed as SBB

Row | SMILES | CL/F (with baicalein 50 mg/kg) [mL/min/kg] | MRT last (with baicalein 50 mg/kg) [h] | Tmax (with baicalein 50 mg/kg) [h] | half-life (with baicalein 50 mg/kg) [h] | CL/F (without baicalein) [mL/min/kg] | MRT last (without baicalein) [h] | Tmax (without baicalein) [h] | half-life (without baicalein) [h] | AUC(0-∞), free silybin (with baicalein 50 mg/kg) [ng ⋅ h/ml] | AUC(0-∞), free silybin (without baicalein) [ng ⋅ h/ml] | also measured
1 | COc1cc([C@H]2Oc3cc([C@H]4Oc5cc(O)cc(O)c5C(=O)[C@@H]4O)ccc3O[C@@H]2CO)ccc1O [silybin A] | 233 | 1.9 ± 0.2 | 1.5 | 1.6 ± 2.3 | 417 | 4.1 ± 0.9 | 1.5 | 1.5 ± 0.2 | 3599 ± 410 | 2305 ± 1147 | AUC(0-t), free silybin (with baicalein 50 mg/kg): 3534 ± 344 ng ⋅ h/ml; Cmax, free silybin (with baicalein 50 mg/kg): 1526 ± 126 ng/mL; AUC(0-t), free silybin [1]: 3534 ± 344 ng ⋅ h/ml; Cmax, free silybin [1]: 1526 ± 126 ng/mL; AUC(0-t), free silybin [2]: 1292 ± 342 ng ⋅ h/ml; Cmax, free silybin [2]: 507.7 ± 115 ng/mL
2 | COc1cc([C@@H]2Oc3cc([C@H]4Oc5cc(O)cc(O)c5C(=O)[C@@H]4O)ccc3O[C@H]2CO)ccc1O [silybin B] | 298 | 2.1 ± 0.3 | 1.29 ± 0.51 | 1.34 ± 0.53 | 450 | 4.21 ± 0.98 | 1.5 | 1.7 ± 0.3 | 1812 ± 223 | 2087 ± 932 | AUC(0-t), free silybin [3]: 1808 ± 226 ng ⋅ h/ml; Cmax, free silybin [3]: 915.2 ± 151 ng/mL; AUC(0-t), free silybin (without baicalein): 1195 ± 302 ng ⋅ h/ml; Cmax, free silybin (without baicalein): 413 ± 69 ng/mL; Cmax, free silybin (without baicalein, listed as SBB): 412.7 ± 69.3 ng/mL
